Experimental data from article PMC5901961 (Nature, 2017).

Experiments:
Assay in all cases: inside-out patch clamp, HEK293, macroscopic current at +[…] mV, Hill fit
Format in all cases: cell-based
[1] = target: mouse TRPM4 (Mus musculus, UniProt Q7TN37, H160A)
[2] = target: mouse TRPM4 (Mus musculus, UniProt Q7TN37, Y228A)
[3] = target: mouse TRPM4 (Mus musculus, UniProt Q7TN37)
[4] = target: mouse TRPM4 (Mus musculus, UniProt Q7TN37, W214A)
mouse TRPM4 (Mus musculus, UniProt Q7TN37, W214A), sequence (Q7TN37 whole entry W214A): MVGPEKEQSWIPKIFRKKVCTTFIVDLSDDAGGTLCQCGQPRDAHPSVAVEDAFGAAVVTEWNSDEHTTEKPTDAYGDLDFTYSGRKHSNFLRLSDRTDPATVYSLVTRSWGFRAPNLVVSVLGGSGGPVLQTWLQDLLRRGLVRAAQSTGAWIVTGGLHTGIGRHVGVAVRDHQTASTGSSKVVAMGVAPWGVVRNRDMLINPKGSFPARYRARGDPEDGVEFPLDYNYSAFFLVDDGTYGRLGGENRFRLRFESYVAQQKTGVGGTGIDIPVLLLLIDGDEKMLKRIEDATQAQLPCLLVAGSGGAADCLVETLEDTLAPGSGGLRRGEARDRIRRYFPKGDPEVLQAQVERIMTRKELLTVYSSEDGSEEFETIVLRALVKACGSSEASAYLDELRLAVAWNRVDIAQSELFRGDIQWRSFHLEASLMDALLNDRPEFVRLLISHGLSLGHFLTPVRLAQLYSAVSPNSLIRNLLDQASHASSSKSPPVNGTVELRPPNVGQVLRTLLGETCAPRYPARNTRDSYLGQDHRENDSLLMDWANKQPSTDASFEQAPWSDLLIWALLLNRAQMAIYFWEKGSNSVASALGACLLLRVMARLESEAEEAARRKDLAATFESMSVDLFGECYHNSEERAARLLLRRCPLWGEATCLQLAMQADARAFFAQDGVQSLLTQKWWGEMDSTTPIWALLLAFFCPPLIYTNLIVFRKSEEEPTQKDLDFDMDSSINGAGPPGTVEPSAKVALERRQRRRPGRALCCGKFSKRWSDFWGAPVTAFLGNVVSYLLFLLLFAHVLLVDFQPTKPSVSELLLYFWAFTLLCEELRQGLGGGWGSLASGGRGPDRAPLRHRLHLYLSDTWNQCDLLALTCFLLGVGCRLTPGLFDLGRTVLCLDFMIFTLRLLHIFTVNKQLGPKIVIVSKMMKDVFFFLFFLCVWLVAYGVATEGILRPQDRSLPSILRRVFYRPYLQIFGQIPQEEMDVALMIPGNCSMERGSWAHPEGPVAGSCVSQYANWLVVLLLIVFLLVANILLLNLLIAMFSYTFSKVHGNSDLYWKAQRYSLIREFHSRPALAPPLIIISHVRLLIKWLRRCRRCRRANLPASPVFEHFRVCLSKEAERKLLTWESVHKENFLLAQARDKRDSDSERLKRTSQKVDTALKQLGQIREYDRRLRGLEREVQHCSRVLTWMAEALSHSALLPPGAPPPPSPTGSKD

mouse TRPM4 (Mus musculus, UniProt Q7TN37, Y228A), sequence (Q7TN37 whole entry Y228A): as the sequence (Q7TN37 whole entry W214A) above, with A214W, Y228A counted along it
mouse TRPM4 (Mus musculus, UniProt Q7TN37), sequence (Q7TN37 whole entry): as the sequence (Q7TN37 whole entry W214A) above, with A214W counted along it
mouse TRPM4 (Mus musculus, UniProt Q7TN37, H160A), sequence (Q7TN37 whole entry H160A): as the sequence (Q7TN37 whole entry W214A) above, with H160A, A214W counted along it

Compound: Nc1ncnc2c1ncn2[C@@H]1O[C@H](COP(=O)(O)OP(=O)(O)OP(=O)(O)O)[C@@H](O)[C@H]1O [ATP]
- IC50 [1]: > 160 µM
- IC50 [2]: 14.2 ± 0.7 µM
- IC50 [3]: 2.3 ± 0.5 µM
- IC50 [4]: 6.5 ± 0.8 µM
